Like-named read-outs stand apart in the source and are kept apart here.
How the values were obtained:
[1] = system: UM-UC-3 tumors; format: in vivo, mice; settings: mg/kg/day: PM00104 0.90 IV, cisplatin 5 IP, gemcitabine 180 IP, paclitaxel 15 IP
Experimental: (§1) Female athymic nude mice (Harlan Sprague Dawley, Madison, Wis.) were utilized for all experiments. Animals were housed in ventilated rack caging with food and water ad libitum. The mice were acclimated for at least 5 days prior to tumor implantation with a tumor cell suspension.
The tumor model used in these studies was UM-UC-3 cell line, which was obtained from the ATCC (Manassas, Va.).
UM-UC-3 cells were grown in minimum essential medium (Eagle's) supplemented with 10% FBS, 1.5 g/L sodium bicarbonate, 0.1 mM non-essential amino acids, 1 mM sodium pyruvate, and 2 mM L-glutamine. Each animal was implanted SC on the right flank, using a trochar and 1 cc syringe, with 5×10^6 UM-UC-3 cells, from in vitro passage 17, in a 0.2 mL suspension of 50% Matrigel and 50% serum free medium, without antibiotics. Bacterial cultures were performed on aliquots of the cells prepared for implantation.
Treatments were initiated on DPI 15.
(§2) Tumor size measurements were recorded twice weekly from the treatment initiation until the termination of the study.
(§3) Mean, standard deviation and standard error of the mean were determined for tumor volume for all animal groups at all assessments. Student's t test was performed on tumor volumes at each measurement day, including at the end of the study, to determine whether there were any statistically significant differences between combination treatment groups and single monotherapy treatment groups.

[2] = system: MIA PaCa-2 tumors; format: in vivo, mice; settings: mg/kg/day: PM00104 0.90 IV
Source text: as §1
The tumor model used in these studies was MIAPaCA-2 cell line, which was obtained from the ATCC (Manassas, Va.).
Each animal was implanted subcutaneously (SC) on the right flank, using a trochar, with 1×10^7 MIAPaCA-2 cells, from in vitro passage 18, in a 0.2 mL suspension of 50% Matrigel/50% serum free medium, without antibiotics. Matrigel is a biological extracellular matrix that is liquid at 4° C. and solid at 37° C., and it promotes tumor growth by maintaining the cells in close association in a localized area. Bacterial cultures were performed on aliquots of the cells prepared for implantation.
Tumor measurements were determined by using Vernier calipers. The formula to calculate volume for a prolate ellipsoid was used to estimate tumor volume (mm^3) from 2-dimensional tumor measurements: Tumor volume (mm^3)=[L×W^2]÷2, where L is the length and it is the longest diameter in mm, and W is the width and it is the shortest diameter in mm of a tumor. Assuming unit density, volume was converted to weight (i.e., 1 mm^3=1 mg).
Treatments were initiated on DPI (Day Post Implantation) 13. In these experiments, the combination therapy groups were treated by co-administering the two drugs at the same time, with no attempt to sequence the treatments.
as §2, §3
The definition and criteria for the evaluation of potentiation and the degree of additivity for the combination therapy were as follows:
Additivity was determined as discussed above by comparing the % of tumor growth inhibition of the monotherapy groups versus those of the combination group as follows: • 1. Determine the % of tumor growth inhibition, as 100-% T/C, for each of the drugs administered as monotherapy at the doses used in the combinations. % T/C was obtained by comparing the mean tumor weight in the treatment groups (T) to the mean tumor weight in the control group (C) (T/C×100%). • 2. The two scores were added together to determine the “expected response” if each agent produced the same response as it did when administered as monotherapy. • 3. This “expected response” was subtracted from the % of tumor growth inhibition determined for the combination therapy group: • a. […] If the resulting number was close to zero, the effect of combining the two drugs was determined as additive. • c.

[3] = system: MCF-7 (breast cancer) cell line; assay: IC50 determination, MIT (tetrazolium) assay, 72 h (Example 18); format: cell-based; settings: Homo sapiens, MCF7; MCF-7, 72 hours of drug exposure
Experimental: (§4) Before plating, cell cultures were trypsinized and cell number estimated using an automated flow cytometer.
(§5) Cells were harvested and seeded in 96 well microtiter plates at the appropriate cell density (5,000-10,000 cells) in 150 μL of media and incubated for 24 hours to allow the cells to attach before drug addition.
(§6) After the incubation period (72 hours), 50 μL of MIT solution was added to each microtiter well and incubated for further 8 hours at 37° C. The culture medium was then removed and 50 μl, of DMSO were added to dissolve the MIT crystals. Optical densities were read at 540 nm on spectrophotometer microplate reader.
(§7) IC50 values were calculated from an average of two to four assays for each of the test agents.

[4] = system: MDA-MB-231 (breast cancer) cell line; assay: as above; format: cell-based; settings: Homo sapiens; MDA-MB-231, 72 hours of drug exposure
Experimental: as §4, §5, §6, §7

[5] = day 13, gemcitabine 140 IP, erlotinib 100 PO
[6] = day 15, gemcitabine 140 IP, erlotinib 100 PO
[7] = day 19, gemcitabine 140 IP, erlotinib 100 PO
[8] = day 22, gemcitabine 140 IP, erlotinib 100 PO
[9] = day 27, gemcitabine 140 IP, erlotinib 100 PO
[10] = day 29, gemcitabine 140 IP, erlotinib 100 PO
[11] = day 33, gemcitabine 140 IP, erlotinib 100 PO
[12] = day 36, gemcitabine 140 IP, erlotinib 100 PO

COc1c(C)cc2c(c1O)[C@@H]1[C@@H]3Cc4c(OC(C)=O)c(C)c5c(c4[C@H](CNC(=O)/C=C/c4cccc(C(F)(F)F)c4)N3[C@@H](O)[C@H](C2)N1C)OCO5 [PM00104]
% Inhibition ([1]; day 15): −0.8%
% T/C on day ([1]; day 15): 100.8%
% Inhibition ([1]; day 20): 52.8%
% T/C on day ([1]; day 20): 47.2%
% Inhibition ([1]; day 22): 52.2%
% T/C on day ([1]; day 22): 47.8%
% Inhibition ([1]; day 26): 60.2%
% T/C on day ([1]; day 26): 39.8%
% Inhibition ([1]; day 29): 47.4%
% T/C on day ([1]; day 29): 50.4%
% Inhibition ([1]; day 34): 50.7%
% T/C on day ([1]; day 34): 49.3%
% Inhibition ([1]; day 40): 37.1%
% T/C on day ([1]; day 40): 62.9%
% Inhibition ([1]; day 43): 35.1%
% T/C on day ([1]; day 43): 64.9%
% Inhibition ([2]; day 13, erlotinib 50 PO): 0.9%
% Inhibition [2, 5]: 0.9%
% T/C on day [2, 5]: 99.1%
% Inhibition ([2]; day 15, erlotinib 50 PO): 12.9%
% Inhibition [2, 6]: 12.9%
% T/C on day [2, 6]: 87.1%
% Inhibition ([2]; day 19, erlotinib 50 PO): 22.8%
% Inhibition [2, 7]: 22.8%
% T/C on day [2, 7]: 77.2%
% Inhibition ([2]; day 22, erlotinib 50 PO): 39.2%
% Inhibition [2, 8]: 39.2%
% T/C on day [2, 8]: 60.8%
% Inhibition ([2]; day 27, erlotinib 50 PO): 30.8%
% Inhibition [2, 9]: 30.8%
% T/C on day [2, 9]: 69.2%
% Inhibition ([2]; day 29, erlotinib 50 PO): 40.0%
% Inhibition [2, 10]: 40.0%
% T/C on day [2, 10]: 60.0%
% Inhibition ([2]; day 33, erlotinib 50 PO): 36.1%
% Inhibition [2, 11]: 36.1%
% T/C on day [2, 11]: 63.9%
% Inhibition ([2]; day 36, erlotinib 50 PO): 43.4%
% Inhibition [2, 12]: 43.4%
% T/C on day [2, 12]: 56.6%
IC50 [3]: 1 nM
IC50 [4]: 6 nM
